The test system of one experiment is angiotensin II. In words: Test of the antagonistic activity of angiotensin II in a demedullated rat (diastolic arterial pressure). Type of experiment: in vivo, Male Sprague Dawley rats. To be noted: iv, venous route, injected 5 minutes before angiotensin II (0.75 micrograms/kg), pressure effects, read-out: 50% Inhibitory Doses. How it is done:
2--Test of the antagonistic activity of angiotensin II in a demedullated rat
Male Sprague Dawley rats weighing 250 to 350 g were anaesthetized by an intraperitoneal injection of sodium pentobarbital (60 mg/kg). The diastolic arterial pressure was recorded with a heparinated catheter (PE50) introduced into the left carotid of the animal and connected to a pressure processor (Gould, Pressure Processor) via a Gould pressure sensor. A catheter was introduced into the right jugular of the animal for the injection of the molecules to be studied. The animal was placed under assisted respiration and a bilateral section of the vagus nerves was carried out. The rat was then demedullated.
After a sufficient period of stabilization, study of the antagonism of the compound vis-a-vis angiotensin II (Hypertensin Ciba) was started in the following way.
1--Three consecutive injections of angiotensin II (0.75 micrograms/kg) spaced 15 minutes apart which allowed a reproducible and stable pressure response to be obtained. […]
The pressure effects of the angiotensin II in the presence of the antagonist were expressed as a percentage of the pressure effects of the angiotensin II administered alone. The 50% inhibitory dose of the studied effect was thus determined. […]

In another experiment the target is T1, angiotensin II receptor (Rattus norvegicus, UniProt P25095).
T1 construct: A fresh membrane preparation obtained from rat's liver was used; from tissue; host or cells: rat liver membranes
T1 sequence (P25095 1-359): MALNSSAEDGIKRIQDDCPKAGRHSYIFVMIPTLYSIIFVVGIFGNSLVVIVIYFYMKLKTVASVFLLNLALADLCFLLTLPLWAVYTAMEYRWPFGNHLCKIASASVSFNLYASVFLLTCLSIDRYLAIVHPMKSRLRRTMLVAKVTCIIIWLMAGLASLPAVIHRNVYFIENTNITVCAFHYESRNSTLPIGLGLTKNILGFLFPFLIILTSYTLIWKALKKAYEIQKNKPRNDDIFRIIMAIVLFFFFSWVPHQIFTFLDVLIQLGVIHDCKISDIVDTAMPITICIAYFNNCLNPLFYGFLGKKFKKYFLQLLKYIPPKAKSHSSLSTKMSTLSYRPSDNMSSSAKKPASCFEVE
In words: Test on the angiotensin II receptor (displacement of 125I angiotensin II from rat liver membranes). Conditions: rat liver membrane preparation, 25° C., 150 minutes, Tris buffer pH 7.4, read-out: IC50 in Nanomoles. Type of experiment: binding. How it is done:
1--Test on the angiotensin II receptor
A fresh membrane preparation obtained from rat's liver was used and the tissue was ground up in a polytron in a 50 mM Tris buffer pH 7.4. The grinding process was followed by 3 centrifugations at 30,000 g for 15 minutes with intermediate taking up of the pellets in the Tris buffer pH 7.4. The last pellets were suspended in an incubation buffer (20 mM Tris, 135 mM NaCl, 10 mM KCl, 5 mM glucose, 10 mM MgCl2, 0.3 mM PMSF, 0.1 mM bacitracin, 0.2% BSA. 2 ml aliquoted fractions were distributed in hemolysis tubes and 125I angiotensin II (25,000 DPM/tube) and the product under test were added. The product was first tested at 3×10^-5 M three times. When the product tested displaced more than 50% of the radioactivity linked specifically to the receptor, it was tested again in a range of 7 concentrations to determine the concentration which inhibited 50% of the radioactivity linked specifically to the receptor. In this way, the 50% inhibiting concentration was determined.
The non-specific bond was determined by the addition of a product of Example 94 of European Patent No. 0,253,310 at 10^-5 M (three times). After incubation at 25° C. for 150 minutes, the suspension was put in a water-bath at 0° C. for 5 minutes, filtered under vacuum, rinsed with a Tris pH 7.4 buffer and the radioactivity was counted in the presence of scintillating Triton. The result was expressed directly as a 50% inhibiting concentration (IC50), that is to say the concentration of product studied, expressed in […], necessary to displace 50% of the specific radioactivity fixed to the receptor studied.

Each structure is given as a SMILES string.

With `CCCCc1nc2c(n1Cc1ccc(-c3ccccc3S(=O)(=O)NC(=O)NCCC)cc1)C(=O)CCS2` [Example 3, 4'-[(2-butyl-6,7-dihydro-7-oxo-thiopyrano-(2,3-d)imidazol-1-(5H)-yl)-methyl]-N-[(propylamino)-carbonyl]-(1,1,'-biphenyl)-2-sulfonamide], the ED50 with angiotensin II is 0.08 mg/kg. At angiotensin II receptor, the half-inhibitory concentration (IC50) turned out to be 1.3 nM.
Take `CCCCc1nc2c(n1Cc1ccc(-c3ccccc3S(=O)(=O)NC(=O)OCC)cc1)C(=O)CCS2` [Example 4]: the ED50 with angiotensin II was found to be 0.09 mg/kg. The IC50 on angiotensin II receptor stood at 0.2 nM.
Regarding `CCCCc1nc2c(n1Cc1ccc(-c3ccccc3S(=O)(=O)NC(=O)NCCC)cc1)C(=NO)CCS2` [Example 7, 4'-[(2-butyl-7-(hydroxyimino)-1,5,6,7-tetrahydro-thiopyrano[2,3-d)-imidazol-1-yl)-methyl]-N-[(propylamino)-carbonyl]-(1,1'-biphenyl)-2-sulfonamide], the IC50 on angiotensin II receptor came to 5.3 nM.

The record behind these values is patent US5714508A, “Bicycle Derivatives of imidazole” (Roussel Uclaf, priority 1993, dated 1998).
